{"source": "patent US20070161691A1", "about": "“Modified-protein formation inhibitor” (TOKAI UNIVERSITY, priority 2003, published 2007)", "key": {"[1]": {"test_system": "ICR mice", "assay": "Acute toxicity examination, single oral administration to mouse", "conditions": "in vivo, po", "description": "(§1) For 4-(5-phenyltetrazol-1-ylmethyl)-morpholine (compound 1) and (5-phenyltetrazol-1-yl) methanol (compound 3), acute toxicity test was carried out using mice. Each compounds were suspended in carboxymethyl cellulose in given concentration to prepare sample for oral administration. Then single oral administration was done to mouse. The dose is 100, 250, 500, 1000 and 2000 mg/kg. Five ICR mice (male , 8 weeks aged, closed colony) were used in each group. The test material was administrated to determine LD50 value."}, "[2]": {"assay": "Acute toxicity examination, single oral administration to mouse", "conditions": "male, in vivo, ICR mice, single oral administration", "description": "as §1"}, "[3]": {"assay": "Suppressive effect on the hydroxylation of phenylalanine with hydroxy radical", "assay_type": "biochemical", "conditions": "in comparison with pyridoxamine as positive control; 0.1, 0.5, 2.5 mM", "description": "Phenylalanine (final concentration: 1 mM), test compound (final concentration: 0.1, 0.5, 2.5 mM), hydrogen peroxide (final concentration: 5 mM) and cupric sulfate (final concentration: 0.1 mM) were dissolved in 200 mM of phosphate buffer (pH7.4) (total volume 500 μL), followed by incubation at 37° C. for 4 hours. Then, DTPA (final concent-ration: 1 mM) and 260 unit of catalase were added thereto to interrupt the reaction. The amounts of o-tyrosine and m-tyrosine formed were determined by HPLC in the following manner: after a designed period of time, the reaction mixture was diluted to 100 folds; 20 μL of the dilution was injected onto HPLC, separation was made with C18 column (4.6×250 mm, 5 μm; Nomura Kagaku) and detection was effected using a fluorescence detector (RF-10A: Shimazu Seisakusho) under the condition of an excitation wavelength of 275 nm and a fluorescence wavelength of 305 nm. In the mobile phase, the flow rate was 0.6mL/min and the concentration of buffer B was varied from 6.5% to 10% in 25 minutes (buffer A: 0.10% trifluoroacetic acid; buffer B: 80% acetonitrile containing 0.08% trifluoroacetic acid)."}, "[4]": {"assay": "Suppressing effect on the nitration of tyrosine with peroxynitrite", "assay_type": "biochemical", "conditions": "in comparison with pyridoxamine as positive control; 0.1, 0.5, 2.5 and 5 mM", "description": "According to the method of Pannala, A.S. et al. (Free Radic. Biol. Med., 24:594-606, 1998), the examination was carried out. Namely, tyrosine (final concentration: 100 μM), the test compound (final concentration: 0.1, 0.5, 2.5 and 5 mM) and peroxynitrite (Dojin Kagaku) (final concentration: 500 μM) were dissolved in 200 mM of phosphate buffer (pH7.4) (liquid volume 500 μL) and incubated at 37° C. for 15 minutes. After incubation, the nitrotyrosine formation was determined with HPLC in the following manner: after a predifined time, the reaction mixture (20 μL) was injected onto HPLC, separation was made with C18 column (4.6×250 mm, 5 μm: Waters) and the detection was effected using a ultraviolet detector (RF-10A: Shimazu Seisakusho) at a wavelength of 280 nm. In the mobile phase, the flow rate was 0.6 mL/min and the concentration of buffer B was varied from 5.0% to 30% in 30 minutes (buffer A: 0.10% trifluoroacetic acid; buffer B: 80% acetonitrile containing 0.08% trifluoroacetic acid). 4-Hydroxy-3-nitrobenzoic acid (100 μM) was used as the internal standard."}, "[5]": {"test_system": "glomerulonephritis model with mesangial proliferative nephritis", "assay": "Effect against glomerulonephritis (anti Thy-1 antibody model)", "assay_type": "in vivo, rat", "conditions": "1 mg/kg once a day, 5 days", "description": "1.2 mg/kg of OX-7, anti Thy-1 antibody, was administered to wistar rat (male, body weight 150 g, 6 weeks old) in tail vein to prepare typical glomerulonephritis model with mesangial proliferative nephritis. After the administration of anti Thy-1 antibody, test compound (4-(5-phenyltetrazol-1-ylmethyl)-morpholine (compound 1), 1 mg/kg body weight, once a day) was suspended in 0.5% carboxymethylcellulose, was coercively administered for 5 days continuously, on sixth day sampled, kidney was obtained, and analysed pathologically (count the number of glomerular cells). In particular, cells were stained by PAS according to conventional method, the stained image was captured by 3CCD camera (Olympus), and then analyzed using softwares, Image Graver PCI (FUJI shashin film) and Mac Aspect (Mitani kabushiki kaisha). Also, biochemical analysis of blood and urine was carried out (contract clinical analysis organization: SR L)."}, "[6]": {"test_system": "middle cerebral artery ischemia-reperfusion model", "assay": "Cerebroprotective action in middle cerebral artery ischemia-reperfusion model", "assay_type": "in vivo, rat", "conditions": "after reperfusion 22 hrs"}, "[7]": {"test_system": "middle cerebral artery ischemia-reperfusion model", "assay": "Cerebroprotective action in middle cerebral artery ischemia-reperfusion model", "assay_type": "in vivo, rat", "conditions": "for cerebral infarction nest: dosed 5 minutes and 5 hours after occlusion", "description": "CD(SD)IGS male rats (Japan Charles River Kabushiki […], Hino farm, room No. 22, specific product) (8 rats per one group) having body weight 270 to 350 g were anesthetized by 2% isoflurane (mixed bas comprising of 70% N2O (laughter gas) and 30% O2) to immobilize, and then the rats were put on warming plate to keep the rectal and brain temperature 37 to 38° C. After that, to observe the stability in the examination, canula which was made by polyethylene (PE-50, Becton Dickinson) was inserted and left in caudal artery of said animal, and this made blood drawing and blood pressure determining to monitor the biochemical parameter such as blood sugar level, hematocrit, CO2 concentration, oxygen partial pressure, pH, blood pressure and etc. In addition, cerebral blood flow in cortex was determined by laser doppler […] (Neuroscience.inc: OMEGA FLOW (FLO-C1)), putting the detection site directly on cranium on the point left 4 mm from bregma. Left neck of such animal was incised, and from internal and external carotid fork of common carotid artery to upstream of internal carotid, nylon surgical thread (length 16 mm, diameter 0.2 to 0.3 mm, with silicon coating on its tip 3 mm) was passed and left, middle cerebral artery was obstructed for 2 hours. After that, the thread was removed to release the middle cerebral artery, and blood was reperfused for 21 hours. To each animals, 3.0 mg/kg of 3-methyl-1-phenyl 2-pyrazolin-5-one (control, hereinafter referring to edaravone) and 4.23 mg/kg of 4-(5-phenyltetrazol-1-ylmethyl)-morpholine (compound 1) (test compound, hereinafter referring to TM-3001) were respectively administered twice by cannula which is left in caudal artery 5 minutes and 5 hours after middle cerebral artery occlusion. After said operation, the brain was removed from said animal, and after preparing 7 brain slices with 2 mm thickness, to TTC stain (0.8 g of 2,3,5-triphenyltetrazolium chloride (Sigma) dissolved in 40 ml of saline) were soaked at 37° C. for 15 minutes to stain, and fixed by 10% neutral formalin liquid to prepare specimen. Such specimens were created the image by CCD camera respectively, and analysed according to method of Swanson et al. (J Cereb Blood Flow Metab 10:290-293; […]). […] Furthermore, function recovering was estimated before and after the operation by rotor rod test that estimates how much they can walk on rotating rotor."}, "[8]": {"conditions": "comparing to diluent single administration"}}, "data": [{"smiles": "c1ccc(-c2nnnn2CN2CCOCC2)cc1", "note": "[Compound 1, 4-(5-phenyltetrazol-1-ylmethyl)-morpholine]", "values": [{"measurement": "toxicity", "setting": "[1]", "result": "lower toxicity"}, {"measurement": "LD50", "setting": "[2]", "result": "> 1000", "unit": "mg/kg"}, {"measurement": "hydroxylation of phenylalanine with hydroxy radical, suppression", "setting": "[3]", "result": "suppressed remarkably"}, {"measurement": "nitrotyrosine formation, suppression", "setting": "[4]", "result": "suppressed remarkably"}, {"measurement": "BUN", "setting": "[5]", "result": "BUN reducing effect"}, {"measurement": "urinary protein", "setting": "[5]", "result": "urinary protein reducing effect"}, {"measurement": "Nervous condition estimation test, Ave (Bederson grade)", "setting": "[6]", "result": 1.8}, {"measurement": "Nervous condition estimation test, Ave (Bederson grade)", "setting": "[7]; after occlusion 10 min", "result": 2.4}, {"measurement": "Nervous condition estimation test, Ave (Bederson grade)", "setting": "[7]; after occlusion 2 hrs", "result": 2.9}, {"measurement": "Nervous condition estimation test, Ave (Bederson grade)", "setting": "[7]; after reperfusion 10 min", "result": 2.6}, {"measurement": "Nervous condition estimation test, Ave (Bederson grade)", "setting": "[7]; after reperfusion 3 hrs", "result": 2.4}, {"measurement": "Nervous condition estimation test, Ave (Bederson grade)", "setting": "[7]; after reperfusion 4 hrs", "result": 2.5}, {"measurement": "rotor rod test, Ave (count from rotor rod machine)", "setting": "[7]; before occlusion", "result": 300.0}, {"measurement": "improvement for nervous condition", "setting": "[7]; [8]", "result": "remarkably shown"}, {"measurement": "recovering the function, rotor rod test", "setting": "[7]; [8]", "result": "remarkably shown"}, {"measurement": "cerebral infarction nest", "setting": "[7]; [8]", "result": "reduction of the cerebral infarction nest"}, {"measurement": "cerebral infarction nest", "setting": "[7]; comparing to diluent single administration, listed as TM-3001", "result": "significantly reduced"}, {"measurement": "rotor rod test, Ave (count from rotor rod machine)", "setting": "[7]; reperfusion", "result": 64.8}, {"measurement": "rotor rod test, ratio to before occlusion (%), Ave", "setting": "[7]; reperfusion vs before occlusion", "result": 21.6, "unit": "%"}]}]}
